The target in this experiment is JAK2 KD (Homo sapiens, UniProt O60674). The experiment is described as follows: Recombinant JAK2 KD protein levels in transfected Expi293F cells. It is filed as cell-based.

Structures are written as SMILES. Like-named read-outs stand apart in the source and are kept apart here.

JAK2 KD, sequence (O60674 840-1132): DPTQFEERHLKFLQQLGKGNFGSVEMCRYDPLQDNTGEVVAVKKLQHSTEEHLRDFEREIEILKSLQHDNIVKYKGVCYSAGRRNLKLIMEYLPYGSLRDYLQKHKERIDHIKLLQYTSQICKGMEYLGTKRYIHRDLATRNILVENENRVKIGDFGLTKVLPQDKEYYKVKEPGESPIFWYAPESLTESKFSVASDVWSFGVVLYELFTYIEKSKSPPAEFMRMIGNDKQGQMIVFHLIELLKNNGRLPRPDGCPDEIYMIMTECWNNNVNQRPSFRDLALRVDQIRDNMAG

For `CCCC(=O)O` [butyric acid], the “JAK2 KD expression increase over that of ruxolitinib alone” value is listed as “four-fold”.

Take `CCCC(CCC)C(=O)O` [valproic acid]: the “JAK2 KD expression increase over that of ruxolitinib alone” value (HDAC inhibitor added alongside 1 μM ruxolitinib, 2 mM and 4 mM) is reported as “four-fold”.

Values taken from article PMC8327781 (Journal of medicinal chemistry, 2021).
